Test [1] concerns mice peritoneal mast cells. Description: Inhibition of histamine release from mice peritoneal mast cells. To be noted: Mus musculus, Mast cell, 0.5 h; anti-DNP24-BSA IgE sensitized, DNP24-BSA 20 ng/ml 30 min; extract 100 μg/ml, Cromolyn 10^−4 M. The class given is cell-based. The procedure:
Each mouse was anesthetized with ether, and injected with 20 ml of Tyrode buffer B (NaCl, glucose, NaHCO3, KCl, NaH2PO4) containing 0.1% gelatin into the peritoneal cavity; then the abdomen was gently massaged for about 90 seconds. The peritoneal cavity was carefully opened, and the fluid containing peritoneal cells was aspirated by pasteur pipette. The peritoneal cells were then sedimented at 150×g for 10 min. at room temperature and resuspended in Tyrode buffer B. Mast cells were separated from the major components of rat peritoneal cells as described in the literature (Yurt et al., J Exp Med., 1; 146(5), pp 1405-19, 1977). Peritoneal cells suspended in 1 ml of Tyrode buffer B were layered onto 2 ml of 0.225 g/ml metrizamide (density 1.120 g/ml) and centrifuged at room temperature for 15 min at 400×g. […] Mast cells were stimulated with 20 ng/ml of DNP24-BSA as an antigen for 30 min., and histamine released into the medium was measured by […]). Inhibition of histamine release was calculated as following empirical formula 1; Percent inhibition=100×(A-B)/(A-C) [Empirical Formula 1] • A: Stimulated level (Histamine release with IgE-stimulation). • B: Suppressed level (Histamine release with IgE-stimulation and drug treatment). • C: Basal level (Histamine release without IgE-stimulation).

In test [2] the test system is splenocytes of ovalbumin-sensitized mouse. Nature of the test: Ovalbumin-sensitized mouse model: expression of cytokines by splenocytes re-stimulated with ovalbumin (ELISA). The class given is in vivo. To be noted: splenocytes of OVA-stimulated mouse, ovalbumin 100 μg/ml, 3 days. The procedure: The ovalbumin-sensitized mouse model is commonly used as animal model of allergy. Female BALB/c mice, aged 6 weeks (Seoul national university animal experimental center) were adapted to the environment for 7 days.
On the 25th day, mice were sacrificed and blood serum and spleen was collected therefrom.
Each prepared splenocytes was pooled and homogenized under an aseptic condition.
Splenocytes prepared as above were inoculated in 24-well plate (5×10^6 cell/ml/well), treated with 100 μg/ml of ovalbumin, and incubated at 37° C. under an atmosphere containing 5% CO2 for 3 days. After cultivation was finished, a culture solution was gathered and then the concentration of cytokines (IL-4, IL-5, IL-12 and interferon-γ) related to allergy were measured by commercial ELISA kits.

The subject of a further test is Nc/Nga mouse. Description: Nc/Nga mouse model of atopic dermatitis: scratching and serum IgE, IgG1, IgG2a. To be noted: oral 8 weeks, extract 300 μg/mouse/day, dexamethasone 10 μg/mouse/day, 16 weeks old. The class given is in vivo. The procedure: To confirm anti-allergic effect of hardy kiwifruit extract in animals, Nc/Nga mouse model that has been widely used as an animal model for human atopic dermatitis study was employed.
(§1) For experiment, 15 of Nc/Nga mice (7 weeks after birth, female) were divided into 3 groups and adapted to new circumstance for 1 week. Since 8 weeks after birth, the hardy kiwifruit extract (300 μg/mouse/day) prepared in example 1-1 as a treatment group had been orally administered and dexamethasone (10 μg/mouse/day) or drinking water (100 μg/mouse/day) as control groups had been orally administered for 8 weeks. To compare the progress of dermatitis symptom, the scratching frequency of mouse (the time spent scratching during 20 min-observation) was measured when mice is grown at the age of 12 and 14 weeks. 16 weeks old mouse was sacrificed and the quantity of IgE, IgG1 and IgG2a level in serum were measured by ELISA method. Also, to compare the production of Th1/Th2 cytokines, splenocyte was prepared by conventional method from each mouse, transferred into 24-well plate (5×10^6 cells/ml/well) and incubated with ConA (1 μg/ml) for 3 days and then the levels of IL-4, IL-5, IL-12, and Interferon-γ were measured by ELISA method.

In a further test the test system is U266B1 cell line. Description: Inhibition of IgE production in LPS-stimulated U266B1 cell line (ELISA). Type of test: cell-based, human. The following applies: 7 days.
For test [3], the system named is ovalbumin-sensitized mouse. Description: Ovalbumin-sensitized mouse model: ovalbumin-specific IgE, IgG1, IgG2a, IgG2b in serum (ELISA). Type of test: in vivo. To be noted: BALB/c, oral 11 days, extract 300 μg/mouse/day, dexamethasone 10 μg/mouse/day. The procedure: The ovalbumin-sensitized mouse model is commonly used as animal model of allergy. Female BALB/c mice, aged 6 weeks (Seoul national university animal experimental center) were adapted to the environment for 7 days. At the time of 7 weeks after birth, 100 μl of emulsion, mixed 25 μg of ovalbumin (chicken egg albumin, crude grade V, Sigma Co., Ltd.) with 2.25 mg of aluminum hydroxide (ImujectAlum, Pierce Co., Ltd.) was injected into mouse peritoneal cavity and 14 days after, it was injected once more for boosting.
And then 30 mice were divided into 3 groups and each group was orally administered with the hardy kiwifruit water extract of Example 1-1 (300 μg/mouse/day), dexamethasone (10 μg/mouse/day), or drinking water (100 μg/mouse/day) for 11 days, respectively. On the 25th day, mice were sacrificed and blood serum and spleen was collected therefrom.
In serum collected in Example 2-1, the serum levels of ovalbumin-specific IgE, IgG1, IgG2a and IgG2b were measured by ELISA kits (PharMingen Co., Ltd).

The subject of test [4] is splenocytes of Nc/Nga mouse. Description: Nc/Nga mouse model: Th1/Th2 cytokine production by ConA-stimulated splenocytes. Type of test: in vivo. To be noted: ConA 1 μg/ml, 3 days. The procedure: as §1, with “Since 8 weeks after birth, the hardy kiwifruit extract (300 μg/mouse/day) prepared in example 1-1 as a treatment group had been orally administered and dexamethasone (10 μg/mouse/day) or drinking water (100 μg/mouse/day) as control groups had been orally administered for 8 weeks.” left out

The test system of test [5] is edema induced by arachidonic acid in the ears of mice. Nature of the test: Edema induced by arachidonic acid in the ears of mice. The class given is in vivo. To be noted: BALB/c, p.o. 1 hour before arachidonic acid, extract 200 mg/kg, indomethacin 10 mg/kg. The procedure: 15 mice (8 week old male BALB/c) were fasted for 18 hours with free access to water and divided into 3 groups. Inflammation was induced by topical application of arachidonic acid (0.5 mg/20 μl acetone) to the right ear of each mouse. The left ear was used as a negative control and received the vehicle (20 μl acetone). The hardy kiwifruit extract (200 mg/kg in water) was administered p.o. 1 hour prior to arachidonic acid application. The positive control group received indomethacin (10 mg/kg, p.o.) 1 hour before arachidonic acid application. Inflammation was followed for 1 hour and thereafter the animals were sacrificed. A section of 6 mm diameter disc from each ear was obtained and weighed. The edema index was assessed using the increase in the weight of the treated right ear punch biopsy over that of the untreated left ear.

Experimental for U266B1 cell line: To confirm the inhibitory effect of hardy kiwifruit extraction on IgE production, U266B1 cell (lymphoblastoma cell line) was used. U266B1 is cell line of human B cell, which produces IgE.
U266B1 cells (American Type Culture Collection, Manassas, Va.) was cultured at 37° C. under 5% CO2 circumstances in 24-well culture plate containing RPMI-1640 medium (15% FBS, 2 mM L-glutamine, 10 mM HEPES, 1 mM sodium pyruvate, 50 μg streptomycin and 100 U/ml penicillin). […] Control was treated with 2 μM dexamethasone or medium (RPMI-1640). After treatment, cells were cultured for 7 days and IgE concentration of medium was measured by ELISA kit (PharMingen; San Diego, Calif.).
Silica gel column chromatography fraction [1], [2], [3] and [4] were treated to U266B1 cell line (at 10 μg/ml).

For the compound `O=C(O)c1cc(=O)c2c(OCC(O)COc3cccc4oc(C(=O)O)cc(=O)c34)cccc2o1` [Cromolyn], the inhibition at 100 µM in test [1] came out at 52 ± 13%.

Regarding `C[C@@H]1C[C@H]2[C@@H]3CCC4=CC(=O)C=C[C@]4(C)[C@@]3(F)[C@@H](O)C[C@]2(C)[C@@]1(O)C(=O)CO` [Dexamethasone, dexamethasone], the IL-4 in test [2] (drinking water 159.5, normal mouse 21.6) was 23.2 ± 8.7 pg/mL; in test [4] (drinking water 151.9) it was 42.7 ± 19.4 pg/mL. The IL-12 in test [2] (drinking water 906.2, normal mouse 1626.0) stood at 297.7 ± 16.4 pg/mL; in test [4] (drinking water 1925.7), 201.2 ± 12.1 pg/mL. Further, the Interferon-γ in test [2] (drinking water 1016.0, normal mouse 14.1) is 470.5 ± 38.6 pg/mL; in test [4] (drinking water 10407.5), 10096.4 ± 192.4 pg/mL. Moreover, the IL-5 was determined as 884.1 ± 80.7 pg/mL in test [2] (drinking water 2573.6, normal mouse 0.5) and 646.5 ± 51.7 pg/mL in test [4] (drinking water 778.3). Besides, the IgG2a in serum in the test on Nc/Nga mouse (drinking water 177.5) was found to be 148.0 ± 14.8 pg/mL. The compound also returned an IgG1 in serum in the test on Nc/Nga mouse (drinking water 242.2) of 247.3 ± 10.8 pg/mL. For the same compound, the IgE in serum in the test on Nc/Nga mouse (drinking water 1572.9) was found to be 130.0 ± 55.3 pg/mL. For the same compound, the “IgE (IU/ml)” value in the test with U266B1 cell line (U266B1, LPS 2 μg/ml, extracts 100 μg/ml, dexamethasone 2 μM, LPS+medium 392.9, no LPS 187.8) is 203.6 ± 30.9 IU/ml; in the test with U266B1 cell line (U266B1, LPS stimulation, fractions at 30 μg/ml, LPS+medium 212.5, no LPS 117.4) it was 138.9 ± 2.1 IU/ml; with U266B1 cell line (U266B1, LPS stimulation, silica gel fractions at 10 μg/ml, LPS+medium 540.4, no LPS 379.7), 277.6 ± 12.4 IU/ml. In addition, in test [3] (normal 1.0, drinking water 1.4, the values are: IgG2b relative to normal mice), the ovalbumin-specific IgG2b in serum came to 1.2 ± 0.1. Further, the ovalbumin-specific IgG2a in serum in test [3] (normal 1.0, drinking water 2.1, the values are: IgG2a relative to normal mice) was 1.9 ± 0.4. In addition, in test [3] (normal 1.0, drinking water 5.1, the values are: IgG1 relative to normal mice), the ovalbumin-specific IgG1 in serum amounted to 3.1 ± 0.3. Besides, in test [3] (normal 1.0, drinking water 7.6, the values are: IgE relative to normal mice), the ovalbumin-specific IgE in serum is 2 ± 0.6.

`COc1ccc2c(c1)c(CC(=O)O)c(C)n2C(=O)c1ccc(Cl)cc1` [Indomethacin, indomethacin] came in with an Index of edema in test [5] (control 7.2 ± 1.1) of 1.3 ± 0.3 mg. In addition, the inhibition at 10 mg/kg in test [5] (Mus musculus, po, read-out: Inhibition rate (%)) is 81.9%.

Source of the values: patent US9131722B2, “Composition comprising the extract of Actinidia arguta and related species for the prevention and treatment of allergic disease and non-allergic inflammatory disease” (VIROMED CO., LTD., priority 2002, dated 2015).
